Laboratory results: article PMC10059083, “Design, Synthesis, and Biological Evaluation of Novel Hydroxamic Acid-Based Organoselenium Hybrids” (Pharmaceuticals, 2023)
Where two headings read alike, the source gives them in different places.

Legend:
[1] = test system: HepG2 cells; test: MTT antiproliferative assay, HepG2 cells; assay type: cell-based; conditions: for IC50: Homo sapiens, read-out: HepG2 IC50; for HepG2 TI (therapeutic index): ratio of IC50 against WI38 cells to IC50 against HepG2 cells
From the text: (§1) Recently, OSe agents have attracted interest due to their potential chemoprotective and antitumor properties. We have developed several OSe compounds with promising antioxidant, antimicrobial, and antitumor properties. Therefore, we estimated the OSe agents’ antiproliferative activities against different cancer cells, i.e., MCF-7 and HepG2 cells and healthy lung fibroblast WI-38 cells, using the MTT assay. The drug doxorubicin was employed as the standard. The corresponding therapeutic indices (TI) are described as the proportion of the WI38 cells IC50 to the IC50 of the cancer cell (e.g., MCF-7 and HepG2) (Table 1).
(§2) The products’ anticancer activity was examined using the MTT assay against breast (MCF-7) carcinoma cells, liver (HepG2), and normal WI-38 cells, following the previously reported method. Experimental details can be found in the Supplementary Materials.
(§3) 1.1. The biological assays
(§4) 1.1.1. The anticancer activity
(§5) The breast adenocarcinoma (MCF-7), Hepatocellular carcinoma (HEPG-2), and normal fibroblast (WI-38) cells were obtained from ATCC via Holding company for biological products and vaccines (VACSERA), Cairo, Egypt. The reagents […] medium, MTT, DMSO, and fetal bovine serum was obtained from Sigma Aldrich. Dulbecco’s modified Eagle’s medium was used as the culture medium for the cells, and the cytotoxicity was evaluated using the reported MTT assay. Doxorubicin was used as the positive reference, and the IC50 values were obtained from the corresponding dose-response curve.
(§6) This colorimetric assay is based on converting the yellow tetrazolium bromide (MTT) to a purple formazan derivative by mitochondrial succinate dehydrogenase in viable cells. Cell lines were cultured in […] medium with 10% fetal bovine serum. Antibiotics added were 100 units/ml penicillin and 100µg/ml streptomycin at 37 C in a 5% Co2 incubator. The cell lines were seeded in a 96-well plate at a density of 1.0x10^4 cells/well. at 37 C for 48 h under 5% Co2. After incubation, the cells were treated with different concentrations of compounds and incubated for 13 […]
Finally, dimethyl sulfoxide (DMSO) in the volume of 100 µl is added to each well to dissolve the purple formazan formed. The colorimetric assay is measured and recorded at an absorbance of 570 nm using a plate reader (EXL 800, USA). The percentage of the relative cell viability was calculated as (A570 of treated samples/A570 of the untreated sample) X 100. […]

[2] = test system: S. aureus; test: Agar diffusion assay, S. aureus; assay type: cell-based; conditions: Staphylococcus aureus; 6-mm disks soaked with 20 μM of the OSe agents; read-out: S. aureus ZID (inhibition zone diameter)
[3] = test system: E. coli; test: Agar diffusion assay, E. coli; assay type: cell-based, Escherichia coli; conditions: for E. coli ZID (inhibition zone diameter): 6-mm disks soaked with 20 μM of the OSe agents; for E. coli IA% (activity index): ratio of inhibition zone of compound to that of positive control (ampicillin)
From the text: (§7) The encouraging antitumor properties of the OSe compounds motivated us to evaluate their corresponding antimicrobial activities against the C. albicans fungal strain, S. aureus Gram-positive bacteria, and E. coli Gram-negative bacteria. Therefore, we applied the agar diffusion and minimum inhibitory concentration (MIC) methods using clotrimazole antifungal and ampicillin antibacterial drugs as standards.
(§8) The products’ antimicrobial properties were examined according to the previously reported method, via agar well diffusion assay against E. coli, S. aureus, and C. albicans. A microdilution method was also used to record MICs (M), following the previously reported procedure. Experimental details can be found in the Supplementary Materials.
1.1. […]
(§9) 1.1.2. The antimicrobial activity
The antimicrobial activities of the OSe compounds were evaluate d against C. albicans yeast as well as E.
coli gram-negative and S. aureus gram-positive bacteria employing the agar well diffusion assay. […]
5 g, and beef extract 3 g) seeded with the dedicated strain. Incubation lasted for 13 h at 36 0C.
Experiments were replicated three times and the antifungal clotrimazole and antibiotic ampicillin
1.1.3. […]

[4] = test system: S. aureus; test: Agar diffusion assay, S. aureus; assay type: cell-based, Staphylococcus aureus; design: concentration or dose not given beside the values; conditions: ratio of inhibition zone of compound to that of positive control (ampicillin)
From the text: as §7
as §8, with “Materials. […]” for “Materials.”
as §9
The antimicrobial activities of the OSe compounds were evaluate d against C. albicans yeast as well as E. coli gram-negative and S. aureus gram-positive bacteria employing the agar well diffusion assay.
Briefly, a concentration of 1 mM was prepared for each compound by dissolving in DMSO. Paper discs of standard size […] were sterilized in an autoclave and soaked in 9 µL of the test compounds, and placed in the Petri dishes, which in turn contain a nutrient media (agar 9 g, peptone 5 g, and beef extract 3 g) seeded with the dedicated strain. Incubation lasted for 13 h at 36 0C.
Experiments were replicated three times and the antifungal clotrimazole and antibiotic ampicillin […]

[5] = test system: MCF-7 cells; test: MTT antiproliferative assay, MCF-7 cells; assay type: cell-based; conditions: for IC50: Homo sapiens, MCF7, 24 h, read-out: MCF7 IC50; for MCF7 TI (therapeutic index): ratio of IC50 against WI38 cells to IC50 against MCF-7 cells
From the text: as §1, with “We have developed several OSe compounds with promising antioxidant, antimicrobial, and antitumor properties.” left out
as §2, §3, §4, §5, §6
(§10) Finally, dimethyl sulfoxide (DMSO) in the volume of 100 µl is added to each well to dissolve the purple formazan formed. The colorimetric assay is measured and recorded at an absorbance of 570 […]
(§11) The percentage of the relative cell viability was calculated as (A570 of treated samples/A570 of the untreated sample) X 100. […]

[6] = test system: WI-38 cells; test: MTT cytotoxicity assay, normal lung fibroblast WI-38 cells; assay type: cell-based; conditions: Homo sapiens, WI-38, 24 h, read-out: WI38 IC50
From the text: as §1, with “We have developed several OSe compounds with promising antioxidant, antimicrobial, and antitumor properties.” left out
as §2, §3, §4, §5, §6, §10, §11

[7] = test system: C. albicans; test: Agar diffusion assay, C. albicans; assay type: cell-based, Candida albicans; conditions: for zone of inhibition at 20 µM: Candida albicans, read-out: C. albicans ZID (inhibition zone diameter); for C. albicans IA% (activity index): ratio of inhibition zone of compound to that of positive control (clotrimazole)

## COc1cccc2c1C(=O)c1c(O)c3c(c(O)c1C2=O)C[C@@](O)(C(=O)CO)C[C@@H]3O[C@H]1C[C@H](N)[C@H](O)[C@H](C)O1 [Adriamycin, doxorubicin, reference compound]
[1]; MTT bioassay, HepG2 cells, 24 h incubation
  IC50: 4.5 ± 0.2 µM

## CC1(C)S[C@@H]2[C@H](NC(=O)[C@H](N)c3ccccc3)C(=O)N2[C@H]1C(=O)O [Ampicillin, ampicillin, reference compound]
[2]
  zone of inhibition at 20 µM: 21 mm
[3]
  E. coli ZID (inhibition zone diameter): 23 mm
  E. coli IA% (activity index): 100%
[4]
  S. aureus IA% (activity index): 100%

## CC(=O)Nc1ccc([Se]CC(=O)NOCc2ccccc2)cc1 [Compound 9, 2-((4-Acetamidophenyl)selanyl)-N-(benzyloxy)acetamide]
[2]
  zone of inhibition at 20 µM: 7 mm
[3]
  E. coli ZID (inhibition zone diameter): 6 mm
  E. coli IA% (activity index): 26.1%
[4]
  S. aureus IA% (activity index): 33.3%
[5]
  IC50: 45.6 ± 2.9 µM
  MCF7 TI (therapeutic index): 1.9
[6]
  IC50: 84.8 ± 4.8 µM
[7]
  zone of inhibition at 20 µM: 9 mm
  C. albicans IA% (activity index): 37.5%
[1]; HepG2, 24 h
  IC50: 53 ± 3.2 µM
[1]
  HepG2 TI (therapeutic index): 1.6

## O=C(O)CCC(=O)Nc1ccc([Se]CC(=O)NOCc2ccccc2)cc1 [Compound 11, 4-((4-((2-((Benzyloxy)amino)-2-oxoethyl)selanyl)phenyl)amino)-4-oxobutanoic Acid]
[2]
  zone of inhibition at 20 µM: 10 mm
[3]
  E. coli ZID (inhibition zone diameter): 7 mm
  E. coli IA% (activity index): 30.4%
[4]
  S. aureus IA% (activity index): 47.6%
[5]
  IC50: 35 ± 2.5 µM
  MCF7 TI (therapeutic index): 1.5
[6]
  IC50: 52.5 ± 3.2 µM
[7]
  zone of inhibition at 20 µM: 13 mm
  C. albicans IA% (activity index): 54.2%
[1]; HepG2, 24 h
  IC50: 48.8 ± 2.8 µM
[1]
  HepG2 TI (therapeutic index): 1.1

## O=C(O)C=CC(=O)Nc1ccc([Se]CC(=O)NOCc2ccccc2)cc1 [Compound 12, 4-((4-((2-((Benzyloxy)amino)-2-oxoethyl)selanyl)phenyl)amino)-4-oxobut-2-enoic Acid]
[2]
  zone of inhibition at 20 µM: 5 mm
[3]
  E. coli ZID (inhibition zone diameter): 4 mm
  E. coli IA% (activity index): 17.4%
[4]
  S. aureus IA% (activity index): 23.8%
[5]
  IC50: 63 ± 3.8 µM
  MCF7 TI (therapeutic index): 0.6
[6]
  IC50: 36.5 ± 2.4 µM
[7]
  zone of inhibition at 20 µM: 10 mm
  C. albicans IA% (activity index): 41.7%
[1]; HepG2, 24 h
  IC50: 72.9 ± 3.7 µM
[1]
  HepG2 TI (therapeutic index): 0.5

## O=C(C[Se]c1ccc(NC(=O)CCl)cc1)NOCc1ccccc1 [Compound 14, N-(benzyloxy)-2-((4-(2-chloroacetamido)phenyl)selanyl)acetamide]
[5]
  IC50: 87.4 ± 4.1 µM
  MCF7 TI (therapeutic index): 1.1
[6]
  IC50: > 100 µM
[7]
  zone of inhibition at 20 µM: 4 mm
  C. albicans IA% (activity index): 16.7%
[1]; HepG2, 24 h
  IC50: > 100 µM

## CCOC(=O)C(C#N)=NNc1ccc([Se]CC(=O)NOCc2ccccc2)cc1 [Compound 15, Ethyl 2-(2-(4-((2-((benzyloxy)amino)-2-oxoethyl)selanyl)phenyl)hydrazineylidene)-2-cyanoacetate]
[2]
  zone of inhibition at 20 µM: 15 mm
[3]
  E. coli ZID (inhibition zone diameter): 12 mm
  E. coli IA% (activity index): 52.2%
[4]
  S. aureus IA% (activity index): 71.4%
[5]
  IC50: 21.6 ± 1.6 µM
  MCF7 TI (therapeutic index): 3.8
[6]
  IC50: 82 ± 4.6 µM
[7]
  zone of inhibition at 20 µM: 20 mm
  C. albicans IA% (activity index): 83.3%
[1]; HepG2, 24 h
  IC50: 15.8 ± 1.3 µM
[1]
  HepG2 TI (therapeutic index): 5.2

## O=C(C[Se]c1ccc(N=Nc2ccc(O)cc2)cc1)NOCc1ccccc1 [Compound 16, N-(benzyloxy)-2-((4-((4-hydroxyphenyl)diazenyl)phenyl)selanyl)acetamide]
[2]
  zone of inhibition at 20 µM: 11 mm
[3]
  E. coli ZID (inhibition zone diameter): 9 mm
  E. coli IA% (activity index): 39.1%
[4]
  S. aureus IA% (activity index): 52.4%
[5]
  IC50: 33.7 ± 2.4 µM
  MCF7 TI (therapeutic index): 1.9
[6]
  IC50: 64.2 ± 3.9 µM
[7]
  zone of inhibition at 20 µM: 16 mm
  C. albicans IA% (activity index): 66.7%
[1]; HepG2, 24 h
  IC50: 26.5 ± 2 µM
[1]
  HepG2 TI (therapeutic index): 2.4
